The source of these data is ChEMBL document CHEMBL3632488, “Discovery of potent and selective cytotoxic activity of new quinazoline-ureas against TMZ-resistant glioblastoma multiforme (GBM)” (Eur J Med Chem, 2015).

The source made the active and inactive calls. The calls are words filed in the database; no cut-off is given here.

One test concerns GBM1. The test is described as follows: Induction of apoptosis in human GBM1 cells assessed as loss of mitochondrial membrane potential at 10 uM after 2 hrs by JC-1 staining based fluorescence microscopy. The format is functional, cell-based.
Test [1] can be described thus: Selectivity index, ratio of IC50 for normal human astrocytes to IC50 for human GBM1 cells.
Test [2] in a line: Selectivity index, ratio of IC50 for normal human astrocytes to IC50 for human GBM2 cells.
The nature of test [3]: Cytotoxicity against normal human astrocytes assessed as cell viability incubated for 72 hrs by WST-1 method. Particulars: Astrocyte. The format is cell-based. A general note: Tetrazolium assays rely on reduction of a dye to a coloured formazan, in cell work by metabolically active cells.
Test [4] has as its target Translocator protein (Rattus norvegicus) (UniProt P16257). The test is described as follows: Displacement of [3H]PK11195 from TSPO receptor in Sprague-Dawley rat cerebral cortex membrane at 1 nM by radiometric competitive assay. The format is tissue-based. In general terms: Loss of bound radioactivity is the signal in a displacement assay; it reports binding, not function.

The nature of test [5]: Antiproliferative activity against human GBM2 cells assessed as reduction in cell viability at 10 uM incubated for 72 hrs by WST-1 method. The test is classed as functional. Particulars: GBM2, 72 h.
The nature of test [6]: Antiproliferative activity against human GBM3 cells assessed as reduction in cell viability at 10 uM incubated for 72 hrs by WST-1 method. The format is functional. As to conditions: GBM3, 72 h.
For test [7], the target named is Translocator protein (Rattus norvegicus) (UniProt P16257). Briefly: Displacement of [3H]PK11195 from TSPO receptor in Sprague-Dawley rat cerebral cortex membrane at 100 nM by radiometric competitive assay. The format is tissue-based.
Another test deals with Translocator protein (Rattus norvegicus, UniProt P16257). Briefly: Displacement of [3H]PK11195 from TSPO receptor in Sprague-Dawley rat cerebral cortex membrane by radiometric competitive assay. The test is classed as tissue-based.
Test [8] has as its target Translocator protein (Rattus norvegicus) (UniProt P16257). The test is described as follows: Displacement of [3H]PK11195 from TSPO receptor in Sprague-Dawley rat cerebral cortex membrane at 1 uM by radiometric competitive assay. The test is classed as tissue-based.
Test [9] has the same target. Briefly: Displacement of [3H]PK11195 from TSPO receptor in Sprague-Dawley rat cerebral cortex membrane at 10 nM by radiometric competitive assay. The format is tissue-based.
The nature of test [10]: Antiproliferative activity against human GBM1 cells assessed as reduction in cell viability incubated for 72 hrs by WST-1 method. The format is functional, cell-based. Particulars: GBM1, 72 h.
A short description of test [11]: Selectivity index, ratio of IC50 for normal human astrocytes to IC50 for human GBM3 cells.
A short description of test [12]: Antiproliferative activity against human GBM2 cells assessed as reduction in cell viability incubated for 72 hrs by WST-1 method. The test is classed as functional, cell-based. Particulars: GBM2, 72 h.
Test [13] in a line: Antiproliferative activity against human GBM3 cells assessed as reduction in cell viability incubated for 72 hrs by WST-1 method. The format is functional, cell-based. As to conditions: GBM3, 72 h.
A short description of test [14]: Antiproliferative activity against human GBM1 cells assessed as reduction in cell viability at 10 uM incubated for 72 hrs by WST-1 method. The format is functional. As to conditions: GBM1, 72 h.
Test [15] concerns the target Translocator protein (Rattus norvegicus) (UniProt P16257). The test is described as follows: Displacement of [3H]PK11195 from TSPO receptor in Sprague-Dawley rat cerebral cortex membrane at 10 uM by radiometric competitive assay. The test is classed as tissue-based.
The target is the same in test [16]. As to conditions: Sprague-Dawley, Cerebral cortex, Membrane, 0.1 nM.
Test [17] has as its system GBM. The test is described as follows: Tumoricidal effect in patient derived GBM 047T cells assessed as reduction in neurosphere formation at 20 uM after 1 to 2 weeks by 3D tumor clonogenic assay. The format is functional, cell-based. As to conditions: Homo sapiens.
Test [18] concerns GBM. The test is described as follows: Tumoricidal effect in patient derived GBM 025T cells assessed as reduction in neurosphere formation at 20 uM after 1 to 2 weeks by 3D tumor clonogenic assay. The format is functional, cell-based. As to conditions: Homo sapiens.
The subject of test [19] is GBM. Briefly: Tumoricidal effect in patient derived GBM 464T cells assessed as reduction in neurosphere formation at 20 uM after 1 to 2 weeks by 3D tumor clonogenic assay. The test is classed as functional, cell-based. Particulars: Homo sapiens.
The subject of test [20] is GBM. The test is described as follows: Tumoricidal effect in patient derived GBM 448T cells assessed as reduction in neurosphere formation at 20 uM after 1 to 2 weeks by 3D tumor clonogenic assay. The test is classed as functional, cell-based. As to conditions: Homo sapiens.
In test [21] the test system is GBM. The test is described as follows: Tumoricidal effect in patient derived GBM 096T cells assessed as reduction in neurosphere formation at 20 uM after 1 to 2 weeks by 3D tumor clonogenic assay. Particulars: Homo sapiens. The test is classed as functional, cell-based.

Take `N#CC(C#N)=NNc1cccc(Cl)c1`: the result in the test on GBM1 was Active.
In the case of `O=C(Nc1cc2ncncc2cc1OCc1cccc(F)c1)Nc1cccc2ccccc12`, the “Ratio IC50” value in [1], in [2] and in [11] was >7.7 in each case. Also, the IC50 – broadly, the concentration that gives 50% inhibition – in [3] was > 10 µM; at Translocator protein it was 0.703 µM; in [10] it was 1.3 µM; in test [12], 1.4 µM; in test [13], 1.2 µM. The inhibition (commonly the change of the read-out against control, counted positive when it falls) was 3% in [4]; 34% in [7]; 53% in test [8]; 9% in test [9]; 75% in test [15]. The values for the inhibition at 10 µM in test [5], in test [6] and in test [14] were 94.9%, 92.9% and 92.6%, respectively. The result in the test with GBM1 was Active.
In the case of `O=C(Nc1ccc(Cl)c(Cl)c1)Nc1cc2ncncc2cc1OCc1ccccc1Cl`, the “Ratio IC50” value in test [1], in test [2] and in [11] was >7 each time. In addition, the IC50 in test [3] is > 10 µM; at Translocator protein, 0.447 µM; in [10] it was 1.8 µM; in test [12], 1.3 µM; in [13], 1.2 µM. Besides, the inhibition in test [4] amounted to 1%; in [7], 37%; in [8], 57%; in test [9], 19%; in test [15], 84%. Moreover, the inhibition at 10 µM worked out at 98.9% in [5], 104% in [6] and 87.5% in test [14]. For the same compound, the result in the test on GBM1 was Active.
In the case of `O=C(Nc1cccc(Cl)c1)Nc1cc2ncncc2cc1OCc1ccccc1Cl`, the “Ratio IC50” value in test [1], in test [2] and in test [11] was >4 each time. The IC50 in [3] is > 10 µM; at Translocator protein, 2.79 µM; in test [10] it was 2.6 µM; in test [12], 2.1 µM; in [13], 2.8 µM. Also, the inhibition came to 2% in [4]; 14% in test [7]; 23% in test [8]; 6% in test [9]; 80% in [15]. The inhibition at 10 µM in test [5] worked out at 97.2%; in test [6], 103%; in test [14] it was 78.5%. The result in the test with GBM1 was Active.
On to `CCC(C)N(C)C(=O)c1cc2ccccc2c(-c2ccccc2Cl)n1` (centres undefined), for which the inhibition in [16] worked out at 0%; in [4], 7%; in test [7] it was 90%; in [8], 100%; in test [9] it was 45%.
On to `CN1C(=O)CN=C(c2ccccc2)c2cc(Cl)ccc21`, for which the inhibition was found to be 0% in [4]; 34% in test [7]; 85% in test [8]; 2% in [9]; 97% in test [15].
`O=C(Nc1ccc(Cl)c(Cl)c1)Nc1cc2ncncc2cc1OCc1cccc(F)c1`: the “Ratio IC50” value in [1], in [2] and in [11] was 4 each time. The IC50 in test [3] worked out at 7.4 µM; on Translocator protein, 1.32 µM; in test [10], 2.1 µM; in [12] it was 1.5 µM; in test [13] it was 2 µM. The inhibition came out at 3% in test [4]; 16% in [7]; 42% in test [8]; 8% in [9]; 86% in [15]. The inhibition at 10 µM in [5] came out at 99.1%; in [6], 104%; in [14], 98.6%. In addition, the result in the test on GBM1 was Active.
Turning to `Cn1nnc2c(C(N)=O)ncn2c1=O`, the result with GBM [17] and in the test on GBM [19] was Active. Also, the result in the test with GBM [18], with GBM [20] and with GBM [21] was inactive.
In the case of `O=C(Nc1cc2ncncc2cc1OCc1ccc(Cl)cc1)Nc1cccc2ccccc12`, the “Ratio IC50” value in test [1], in [2] and in [11] was >1.5 throughout. The IC50 was > 10 µM in [3], 7.9 µM in test [10], 4.5 µM in [12] and 7.7 µM in [13]. Further, the inhibition at 10 µM was 98.5% in test [5], 98.8% in test [6] and 97.1% in [14].
Consider `O=C(Nc1ccc(C(F)(F)F)cc1)Nc1cc2ncncc2cc1OCc1cccc(Cl)c1`, for which the “Ratio IC50” value in [1], in test [2] and in [11] was 2 throughout. The IC50 amounted to 8.8 µM in test [3], 3.4 µM in test [10], 4.7 µM in [12] and 5.1 µM in test [13]. The inhibition at 10 µM in test [5] came to 94.6%; in test [6], 90.1%; in test [14], 75.7%.
Regarding `CC[C@@]1(O)C(=O)OCc2c1cc1n(c2=O)Cc2cc3c(CN(C)C)c(O)ccc3nc2-1` [TOPOTECAN], the “Ratio IC50” value in [1], in [2] and in test [11] was 0.5 each time. The IC50 in test [3] was found to be 0.16 µM; in test [10], 0.46 µM; in test [12] it was 0.13 µM; in test [13], 0.38 µM. The inhibition at 10 µM came out at 97.8% in [5], 88.7% in test [6] and 88.7% in test [14].
As for `O=C(Nc1ccccc1F)Nc1cc2ncncc2cc1OCc1ccccc1F`, the “Ratio IC50” value in [1], in test [2] and in [11] was 2.6 in each case. Moreover, the IC50 in test [3] is 10 µM; in [10], 4.2 µM; in test [12] it was 3.6 µM; in test [13], 3.8 µM. For the same compound, the figures for the inhibition at 10 µM in test [5], in [6] and in test [14] were 92.4%, 94.6% and 80.7%, respectively.
